# Measured values as given in patent publication US20140221499A1, “NOVEL RODENT CONTROL AGENTS AND USES THEREOF” (priority 2011, published 2014).
# Target: T1, mTAAR7f (Mus musculus, UniProt Q5QD08)
# T1 sequence (Q5QD08 1-358): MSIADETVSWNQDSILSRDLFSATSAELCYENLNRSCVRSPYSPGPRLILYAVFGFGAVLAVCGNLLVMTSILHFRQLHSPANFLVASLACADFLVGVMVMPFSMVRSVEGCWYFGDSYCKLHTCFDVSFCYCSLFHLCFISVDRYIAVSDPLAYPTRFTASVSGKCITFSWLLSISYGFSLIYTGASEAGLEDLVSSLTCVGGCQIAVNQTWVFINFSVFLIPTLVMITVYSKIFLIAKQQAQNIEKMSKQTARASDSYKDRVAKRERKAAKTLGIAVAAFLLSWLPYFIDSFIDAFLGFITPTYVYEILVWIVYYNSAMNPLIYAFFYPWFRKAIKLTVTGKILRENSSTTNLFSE
# Assay: CRE-SEAP reporter gene assay in HEK293 cells transfected with mTAAR7f
# Format: cell-based
# Parameters: Full Taar coding regions were cloned into pcDNA3.1; expressed in transfected cells; host or cells: HEK293
# Conditions: FIG. 11B, not the mutant mTAAR7f-SS, functional with or without 'Rho tag', EC50 ± s.e.m., 4-parameter Hill equation
# Procedure: FIG. 11 illustrates the dose-dependent responses of TAARs to amines. HEK293 cells were cotransfected with plasmids encoding CRE-SEAP and rTAARs (a) or mTAARs (b), incubated with concentrations of ligands indicated, and assayed for reporter activity (triplicates±s.d.). EC50 values (±s.e.m, bottom right) were calculated using SigmaPlot (Systat Software) and a 4-parameter Hill equation.
# Chemicals tested for the ability to activate mouse TAARs include those previously described (Liberles, S. D., and Buck, L. B. (2006) A second class of chemosensory receptors in the olfactory epithelium, Nature 442, 645-650), as well as the following mixes (5 μM of each indicated compounds). Mix 1: N,N-dimethyl-cyclohexylamine, N,N-dimethyl-phenylethylamine, creatinine, taurine. […]
# Full Taar coding regions were cloned into pcDNA3.1-(Invitrogen) with or without a 5′ DNA extension of 69 bp encoding the first 20 amino acids of bovine rhodopsin followed by a cloning linker ([…]). […] Fluorescence was measured on an EnVision plate reader (Perkin Elmer) and SEAP activity graphed as relative fluorescence of a phosphatase substrate.
# Here, we set out to identify agonists for additional mouse and rat TAARs. […] Transfected cells were incubated with test chemicals, and phosphatase activity was quantified with a fluorescent substrate as a reporter for TAAR activation. […]
smiles,measurement,value
"CN(C)C1CCCCC1 [N,N-DIMETHYLCYCLOHEXYLAMINE, N,N-dimethylcyclohexylamine]",EC50,440 ± 130 nM
